Columns and labels:
Type in all cases: in vivo
[1] = tested on: Spodoptera littoralis (Egyptian Cotton Leaf Worm); test: Activity against Spodoptera littoralis (Egyptian cotton leaf worm); conditions: foliar, 72 h, application rate of 200 ppm, cotton leaf discs sprayed, L1 larvae, 3 days after infestation, read-out: control (at least one of mortality, anti-feedant effect, growth inhibition)
Method: Example B8: Activity Against Spodoptera littoralis (Egyptian Cotton Leaf Worm)
Cotton leaf discs were placed onto agar in 24-well microtiter plates and sprayed with aqueous test solutions prepared from 10′000 ppm DMSO stock solutions. After drying the leaf discs were infested with five L1 larvae. The samples were assessed for mortality, anti-feeding effect, and growth inhibition in comparison to untreated samples 3 days after infestation. Control of Spodoptera littoralis by a test sample is given when at least one of the categories mortality, anti-feedant effect, and growth inhibition is higher than the untreated sample.

[2] = tested on: Euschistus heros (Neotropical Brown Stink Bug); test: Activity against Euschistus heros (neotropical brown stink bug); conditions: 120 h, application rate of 200 ppm, soybean leaves sprayed, N2 nymphs, 5 days after infestation, read-out: effect in at least one of the two categories (mortality or growth inhibition)
Method: Example B4: Activity Against Euschistus heros (Neotropical Brown Stink Bug)
Soybean leaves on agar in 24-well microtiter plates were sprayed with aqueous test solutions prepared from 10′000 ppm DMSO stock solutions. After drying the leaves were infested with N2 nymphs. The samples were assessed for mortality and growth inhibition in comparison to untreated samples 5 days after infestation.

[3] = tested on: Carpocapsa (Cydia) Pomonella (Codling Moth); test: Activity against Carpocapsa (Cydia) pomonella (codling moth), larvicide, feeding/contact; conditions: 336 h, application rate of 12.5 ppm, paraffin-coated diet cubes sprayed, L1 larvae, 14 days after infestation, 26-27° C.
Method: Example B10: Activity Against Carpocapsa (Cydia) Pomonella (Codling Moth) Larvicide, Feeding/Contact
Diet cubes coated with paraffin were sprayed with diluted test solutions in an application chamber. After drying off the treated cubes (10 replicates) were infested with 1 L1 larvae. Samples were incubated at 26-27° C. and checked 14 days after infestation for mortality and growth inhibition.

[4] = tested on: Diabrotica balteata (Corn Root Worm); test: Activity against Diabrotica balteata (corn root worm); conditions: 96 h, application rate of 200 ppm, maize sprouts sprayed, L2 larvae, 4 days after infestation, read-out: effect in at least one of the two categories (mortality or growth inhibition)
Method: Example B3: Activity Against Diabrotica balteata (Corn Root Worm)
Maize sprouts placed onto an agar layer in 24-well microtiter plates were treated with aqueous test solutions prepared from 10′000 ppm DMSO stock solutions by spraying. After drying, the plates were infested with L2 larvae (6 to 10 per well). The samples were assessed for mortality and growth inhibition in comparison to untreated samples 4 days after infestation.

[5] = tested on: Bemisia tabaci (Cotton White Fly); test: Activity against Bemisia tabaci (cotton white fly), feeding/contact activity; conditions: foliar, 144 h, application rate of 200 ppm, cotton leaf discs sprayed, adult white flies, 6 days after incubation
Method: Example B1: Activity Against Bemisia tabaci (Cotton White Fly) Feeding/Contact Activity
Cotton leaf discs were placed on agar in 24-well microtiter plates and sprayed with aqueous test solutions prepared from 10′000 ppm DMSO stock solutions. After drying the leaf discs were infested with adult white flies. The samples were checked for mortality 6 days after incubation.

[6] = tested on: Myzus persicae (Green Peach Aphid); test: Activity against Myzus persicae (green peach aphid), feeding/contact activity; conditions: foliar, 144 h, application rate of 200 ppm, sunflower leaf discs sprayed, aphid population of mixed ages, 6 days after infestation
Method: Example B6: Activity Against Myzus persicae (Green Peach Aphid) Feeding/Contact Activity
Sunflower leaf discs were placed onto agar in a 24-well microtiter plate and sprayed with aqueous test solutions prepared from 10′000 ppm DMSO stock solutions. After drying, the leaf discs were infested with an aphid population of mixed ages. The samples were assessed for mortality 6 days after infestation.

[7] = tested on: Plutella xylostella (Diamond Back Moth); test: Activity against Plutella xylostella (diamond back moth); conditions: 192 h, application rate of 200 ppm, artificial diet, Plutella eggs, 8 days after infestation, read-out: effect in at least one of the two categories (mortality or growth inhibition)
Method: Example B7: Activity Against Plutella xylostella (Diamond Back Moth)
24-well microtiter plates with artificial diet were treated with aqueous test solutions prepared from 10′000 ppm DMSO stock solutions by pipetting. After drying, Plutella eggs were pipetted through a plastic stencil onto a gel blotting paper and the plate was closed with it. The samples were assessed for mortality and growth inhibition in comparison to untreated samples 8 days after infestation.

[8] = tested on: Chilo suppressalis (Striped Rice Stemborer); test: Activity against Chilo suppressalis (striped rice stemborer); conditions: 144 h, application rate of 200 ppm, artificial diet, L2 larvae, 6 days after infestation, read-out: control (at least one of mortality, anti-feedant effect, growth inhibition)
Method: Example B2: Activity Against Chilo suppressalis (Striped Rice Stemborer)
24-well microtiter plates with artificial diet were treated with aqueous test solutions prepared from 10′000 ppm DMSO stock solutions by pipetting. After drying, the plates were infested with L2 larvae (6-8 per well). The samples were assessed for mortality, anti-feeding effect, and growth inhibition in comparison to untreated samples 6 days after infestation. Control of Chilo suppressalis by a test sample is given when at least one of the categories mortality, anti-feedant effect, and growth inhibition is higher than the untreated sample.

[9] = tested on: Myzus persicae (Green Peach Aphid); test: Activity against Myzus persicae (green peach aphid), systemic activity; conditions: 144 h, test rate of 24 ppm, roots of infested pea seedlings in test solution (systemic), 6 days
Method: Example B9: Activity Against Myzus persicae (Green Peach Aphid) Systemic Activity
Roots of pea seedlings infested with an aphid population of mixed ages were placed directly into aqueous test solutions prepared from 10′000 DMSO stock solutions. The samples were assessed for mortality 6 days after placing seedlings into test solutions.

CCS(=O)(=O)c1cc(C2(C#N)CC2)cnc1N1Cc2cc3c(cc2C1=O)OC(F)(F)O3 [Compound P1, 1-[6-(2,2-difluoro-7-oxo-5H-[1,3]dioxolo[4,5-f]isoindol-6-yl)-5-ethylsulfonyl-3-pyridyl]cyclopropanecarbonitrile]
≥ 80%: percent control (mortality, anti-feedant effect or growth inhibition) at 200 ppm [1] | percent effect (mortality or growth inhibition) at 200 ppm [2] | mortality at 12.5 ppm [3] | percent effect (mortality or growth inhibition) at 200 ppm [4] | mortality at 200 ppm [5] | mortality at 200 ppm [6] | percent effect (mortality or growth inhibition) at 200 ppm [7] | percent control (mortality, anti-feedant effect or growth inhibition) at 200 ppm [8]

CCS(=O)(=O)c1c(N2Cc3cc4c(cc3C2=O)OC(F)(F)O4)nc(-c2cnn(CC3CC3)c2)n1C [Compound P9, 6-[2-[1-(cyclopropylmethyl)pyrazol-4-yl]-5-ethylsulfonyl-1-methyl-imidazol-4-yl]-2,2-difluoro-5H-[1,3]dioxolo[4,5-f]isoindol-7-one]
≥ 80%: percent control (mortality, anti-feedant effect or growth inhibition) at 200 ppm [1] | mortality at 24 ppm [9] | percent effect (mortality or growth inhibition) at 200 ppm [2] | percent effect (mortality or growth inhibition) at 200 ppm [4] | mortality at 200 ppm [6] | percent effect (mortality or growth inhibition) at 200 ppm [7] | percent control (mortality, anti-feedant effect or growth inhibition) at 200 ppm [8]

CCS(=O)(=O)c1c(N2Cc3cc4c(cc3C2=O)OC(F)(F)O4)nc(-c2cnn(CC(F)(F)F)c2)n1C [Compound P14, 6-[5-ethylsulfonyl-1-methyl-2-[1-(2,2,2-trifluoroethyl)pyrazol-4-yl]imidazol-4-yl]-2,2-difluoro-5H-[1,3]dioxolo[4,5-f]isoindol-7-one]
≥ 80%: percent control (mortality, anti-feedant effect or growth inhibition) at 200 ppm [1] | mortality at 24 ppm [9] | percent effect (mortality or growth inhibition) at 200 ppm [2] | percent effect (mortality or growth inhibition) at 200 ppm [4] | mortality at 200 ppm [6] | percent effect (mortality or growth inhibition) at 200 ppm [7] | percent control (mortality, anti-feedant effect or growth inhibition) at 200 ppm [8]

CCS(=O)(=O)c1c(N2Cc3cc4c(cc3C2=O)OC(F)(F)O4)nc(-c2ncccn2)n1C [Compound P15, 6-(5-ethylsulfonyl-1-methyl-2-pyrimidin-2-yl-imidazol-4-yl)-2,2-difluoro-5H-[1,3]dioxolo[4,5-f]isoindol-7-one]
≥ 80%: percent control (mortality, anti-feedant effect or growth inhibition) at 200 ppm [1] | mortality at 24 ppm [9] | percent effect (mortality or growth inhibition) at 200 ppm [2] | percent effect (mortality or growth inhibition) at 200 ppm [4] | mortality at 200 ppm [6] | percent effect (mortality or growth inhibition) at 200 ppm [7] | percent control (mortality, anti-feedant effect or growth inhibition) at 200 ppm [8]

CCS(=O)(=O)c1ccc(-c2ncccn2)nc1N1Cc2cc3c(cc2C1=O)OC(F)(F)O3 [Compound P16, 6-(3-ethylsulfonyl-6-pyrimidin-2-yl-2-pyridyl)-2,2-difluoro-5H-[1,3]dioxolo[4,5-f]isoindol-7-one]
≥ 80%: percent control (mortality, anti-feedant effect or growth inhibition) at 200 ppm [1] | mortality at 24 ppm [9] | percent effect (mortality or growth inhibition) at 200 ppm [2] | percent effect (mortality or growth inhibition) at 200 ppm [4] | mortality at 200 ppm [6] | percent effect (mortality or growth inhibition) at 200 ppm [7] | percent control (mortality, anti-feedant effect or growth inhibition) at 200 ppm [8]

CCS(=O)(=O)c1c(N2Cc3cc4c(cc3C2=O)OC(F)(F)O4)nc(-c2cnn(C(F)F)c2)n1C [Compound P20, 6-[2-[1-(difluoromethyl)pyrazol-4-yl]-5-ethylsulfonyl-1-methyl-imidazol-4-yl]-2,2-difluoro-5H-[1,3]dioxolo[4,5-f]isoindol-7-one]
≥ 80%: percent control (mortality, anti-feedant effect or growth inhibition) at 200 ppm [1] | percent effect (mortality or growth inhibition) at 200 ppm [2] | percent effect (mortality or growth inhibition) at 200 ppm [4] | mortality at 200 ppm [5] | percent effect (mortality or growth inhibition) at 200 ppm [7] | percent control (mortality, anti-feedant effect or growth inhibition) at 200 ppm [8]

CCS(=O)(=O)c1cc(C(C)(C)C#N)cnc1N1Cc2cc3c(cc2C1=O)OC(F)(F)O3 [Compound P22, 2-[6-(2,2-difluoro-7-oxo-5H-[1,3]dioxolo[4,5-f]isoindol-6-yl)-5-ethylsulfonyl-3-pyridyl]-2-methyl-propanenitrile]
≥ 80%: percent control (mortality, anti-feedant effect or growth inhibition) at 200 ppm [1] | percent effect (mortality or growth inhibition) at 200 ppm [2] | mortality at 12.5 ppm [3] | percent effect (mortality or growth inhibition) at 200 ppm [4] | mortality at 200 ppm [5] | percent effect (mortality or growth inhibition) at 200 ppm [7] | percent control (mortality, anti-feedant effect or growth inhibition) at 200 ppm [8]

CCS(=O)(=O)c1cc(C(C)(F)F)cnc1N1Cc2cc3c(cc2C1=O)OC(F)(F)O3 [Compound P23, 6-[5-(1,1-difluoroethyl)-3-ethylsulfonyl-2-pyridyl]-2,2-difluoro-5H-[1,3]dioxolo[4,5-f]isoindol-7-one]
≥ 80%: percent control (mortality, anti-feedant effect or growth inhibition) at 200 ppm [1] | mortality at 12.5 ppm [3] | mortality at 200 ppm [5] | percent effect (mortality or growth inhibition) at 200 ppm [7] | percent control (mortality, anti-feedant effect or growth inhibition) at 200 ppm [8]

CCS(=O)(=O)c1c(N2Cc3cc4c(cc3C2=O)OC(F)(F)O4)nc(C2CC2)n1C [Compound P24, 6-(2-cyclopropyl-5-ethylsulfonyl-1-methyl-imidazol-4-yl)-2,2-difluoro-5H-[1,3]dioxolo[4,5-f]isoindol-7-one]
≥ 80%: percent control (mortality, anti-feedant effect or growth inhibition) at 200 ppm [1] | mortality at 24 ppm [9] | percent effect (mortality or growth inhibition) at 200 ppm [2] | percent effect (mortality or growth inhibition) at 200 ppm [4] | mortality at 200 ppm [6] | percent effect (mortality or growth inhibition) at 200 ppm [7] | percent control (mortality, anti-feedant effect or growth inhibition) at 200 ppm [8]

CCS(=O)(=O)c1cc(OC(C)(C)C#N)cnc1N1Cc2cc3c(cc2C1=O)OC(F)(F)O3 [Compound P25, 2-[[6-(2,2-difluoro-7-oxo-5H-[1,3]dioxolo[4,5-f]isoindol-6-yl)-5-ethylsulfonyl-3-pyridyl]oxy]-2-methyl-propanenitrile]
≥ 80%: percent control (mortality, anti-feedant effect or growth inhibition) at 200 ppm [1] | percent effect (mortality or growth inhibition) at 200 ppm [2] | mortality at 12.5 ppm [3] | percent effect (mortality or growth inhibition) at 200 ppm [4] | mortality at 200 ppm [5] | mortality at 200 ppm [6] | percent effect (mortality or growth inhibition) at 200 ppm [7] | percent control (mortality, anti-feedant effect or growth inhibition) at 200 ppm [8]
